Assay results published in patent publication US20170119742A1, “MEDICAMENT FOR PREVENTING AND/OR TREATING STRESS DISEASES” (ONO PHARMACEUTICAL CO., LTD., priority 2014, published 2017).

Assays:
brain TSPO = biological target: T1, brain TSPO (Rattus norvegicus, UniProt P16257); test: Ex vivo brain TSPO occupancy in rats, [3H] PK11195 radiotracer (Biological example 1); conditions: for receptor occupancy at 0.1 mg/kg / receptor occupancy at 0.3 mg/kg / receptor occupancy at 1 mg/kg / receptor occupancy at 3 mg/kg: rat, po, [3H] PK11195; for receptor occupancy at 0.1 mg/kg: 0.1 mg/kg oral; for receptor occupancy at 0.3 mg/kg: 0.3 mg/kg oral; for receptor occupancy at 1 mg/kg: 1 mg/kg oral; for receptor occupancy at 3 mg/kg: 3 mg/kg oral
T1 construct: measured by using brain (cerebral cortex and hippocampus) homogenates of the vehicle treated group and the compound of the present invention treated group; from tissue; host or cells: Wistar rat brain (cerebral cortex, hippocampus) homogenate
Protocol: Male Sic: Wistar rats (Japan SLC, Inc., at the time of use: 11 weeks old) was exposed to physical and mental stressors (Journal of Pharmacological Science, Vol. 104, p. 263-273, 2007). The vehicle (0.5 w/v % methylcellulose 400 cP solution) or the compound of the present invention (0.1, 0.3, 1 and 3 mg/kg) was orally administered. Two hours after the administration, the stressor load was started by putting the rat in a restraint stress cage (Natsume Seisakusho Co., Ltd.). The antistress effect was evaluated by measuring the stool weight which was excreted during the stressor load of 1 hour (n=12 in each group).
Next, brain TSPO occupancy of the compound of the present invention was measured by using brain (cerebral cortex and hippocampus) homogenates of the vehicle treated group and the compound of the present invention treated group, using [^3H] PK11195 as a radiotracer. PK11195 was dissolved in dimethyl sulfoxide (DMSO) to prepare a 4 mmol/L solution. After preparing an ethanol solution of 100 nmol/L [^3H] PK11195 (PerkinElmer, Inc.), the solution was diluted 50-fold with 50 mmol/L HEPES buffer (Sigma-Aldrich Co.). In the case of determining the total binding amount of the radiotracer, 50 mmol/L HEPES (99 μL) and DMSO (1 μL) were added to Nunc MiniSorp (trade name, 12×75 mm, Thermo Fisher Scientific Inc.). In the case of determining the nonspecific binding amount of the radiotracer, 4 mmol/L PK11195 (1 μL) was substituted for DMSO (1 μL). The brain homogenate (50 μL) derived from cerebral cortex or the hippocampus was added to the tube. Then [^3H] PK11195 (50 μL) (cerebral cortex: final concentration 0.4532 nmol/L, hippocampus: final concentration 0.4520 nmol/L) was added and stirred, and the mixture was incubated for 90 minutes at 4° C. After completion of the reaction, ice-cold 50 mmol/L HEPES (2 mL) was added to the tube, and then the mixture was suction filtered on a glass fiber filter (GF/B, Brandel Inc.) which pretreated with 0.3 w/v % polyethyleneimine (Sigma-Aldrich Co.), to collect the brain homogenate. After drying the glass fiber filter, the absorbing part of the brain homogenate was transferred to a liquid scintillation vial. ACS-II scintillation cocktail (7 mL) was added to the liquid scintillation vial and stirred, and the radioactivity was measured by liquid scintillation counter (TRI-CARB2900TR, PerkinElmer Life and Analytical Sciences Inc.). Specific binding amount (dpm) of [3H] PK11195 in each brain homogenate was set to a value obtained by subtracting the nonspecific binding amount (dpm) from the total binding amount (dpm). TSPO occupancy (%) in cerebral cortex and hippocampus, of the compound of the present invention treated group, were calculated according to the following equation.
TSPO Occupancy (%)=(1−X/Y)×100
X: Specific binding amount (dpm) in each brain homogenate Y: Average value (dpm) of specific binding amount in control group

[1] = tested on: olfactory bulb isolated rats; test: Antidepressant effect: excessive emotional reactivity in olfactory bulb isolated rats; assay type: in vivo; conditions: rat, 0.3, 1 and 3 mg/kg oral once daily, before and after administration on day 7, p<0.01 Steel test
Excerpt: Male Crlj: WI rats (Charles River Laboratories Japan, Inc., at the time of surgery: 11 weeks old) were used to prepare an olfactory bulb isolated rat in accordance with Yamaguchi et al. method (Journal of the Pharmaceutical Society of Japan, Vol. 130, p. 175-183, 2007). The head of the anesthetized rat with pentobarbital sodium was fixed to brain stereotaxic apparatus (ASI Instruments Inc., NARISHIGE). After incising the scalp, holes to the left and right olfactory bulb region of the skull (7 mm forward and 1.8 mm laterally from bregma) were made with a dental drill. After aspirating and removing the left and right olfactory bulb by an aspirator coupled to an oral sonde which except for the tip, scalp was sutured. […] After 14 days of surgery, the excessive emotional reactivity was evaluated in accordance with the method of Gomita et al. (Journal of the Pharmaceutical Society of Japan, Vol. 82, p. 267-292, 1983). […]
A vehicle (physiological saline solution containing 0.5% Tween 80) or the compound of the present invention (0.3, 1 or 3 mg/kg) was orally administered to the olfactory bulb isolated rat repeatedly once daily for 8 days. […] On day 7, the excessive emotional reactivity was evaluated before and 1 hour after the administration.

[2] = tested on: CCK-4 induced stress model; test: Antianxiety effect (2): freezing time in CCK-4 induced stress model; assay type: in vivo; conditions: rat, 1 and 3 mg/kg oral, 2 h before CCK-4 3 mg/kg s.c., Steel test
Protocol: Male LEW/CrlCrlj rats (Charles River Laboratories Japan, Inc., at the time of evaluation: 6 weeks old) were used. In accordance with Rupprecht et al. method (Science, Vol. 325, p. 490-493, 2009), cholecystokinin tetrapeptide (CCK-4) (3 mg/kg) was administered subcutaneously to the rat to induce freezing behavior which was used as an indicator of anxiety. The vehicle (0.5 w/v % methylcellulose 400 cP solution) or the compound of the present invention (1 or 3 mg/kg) was orally administered to the rat. Two hours after the administration, CCK-4 (3 mg/kg) was subcutaneously administered. Two minutes after the administration of CCK-4, the front paws of the rat were placed on a wooden block of height 7 cm. […] Instead of CCK-4, the normal group was administered 1% dimethyl formamide which is the vehicle of CCK-4. Cut-off time was set to 120 seconds. This trial was carried out a total five times at about 2 minute intervals, and the sum of the freezing time was calculated.

SMILES: COc1cc(Cl)ccc1[C@H]1c2[nH]c3cccc(F)c3c2C2(CC2)CN1C(C)=O [the compound of the present invention, (1S)-2-acetyl-1-(4-chloro-2-methoxyphenyl)-5-fluoro-1,2,3,9-tetrahydrospiro[β-carboline-4,1′-cyclopropane]]
- receptor occupancy at 0.1 mg/kg (brain TSPO; rat cerebral cortex): 11.8%
- receptor occupancy at 0.3 mg/kg (brain TSPO; rat cerebral cortex): 47.7%
- receptor occupancy at 1 mg/kg (brain TSPO; rat cerebral cortex): 83.8%
- receptor occupancy at 3 mg/kg (brain TSPO; rat cerebral cortex): 94.5%
- receptor occupancy at 0.1 mg/kg (brain TSPO; rat hippocampus): 25.7%
- receptor occupancy at 0.3 mg/kg (brain TSPO; rat hippocampus): 50.7%
- receptor occupancy at 1 mg/kg (brain TSPO; rat hippocampus): 86.3%
- receptor occupancy at 3 mg/kg (brain TSPO; rat hippocampus): 95.1%
- brain TSPO occupancy required to exert antistress, antidepressant and antianxiety effect (brain TSPO; rats, achieved by 0.3 to 3 mg/kg, from Biological examples 1 to 4): ≥ 50%
- excessive emotional score compared with the vehicle control group [1]: significantly lower
- freezing time vs. vehicle control group [2]: shortened this extended freezing time significantly
